Test results from the supplement of paper PMC10307832.

Legend:
Experiment in all cases: relative viability (nuclei count vs DMSO), 5 days (fraction); higher = more cells survive
Crenolanib + Bortezomib = compound: CC1(COc2ccc3c(c2)ncn3-c2ccc3cccc(N4CCC(N)CC4)c3n2)COC1 [Crenolanib] + CC(C)C[C@H](NC(=O)[C@H](Cc1ccccc1)NC(=O)c1cnccn1)B(O)O [Bortezomib] (partner 0.002 µM)
Outline: (§1)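 Relative viability is defined as nuclei in treated wells over nuclei in vehicle wells. Duplicate plates were run and medians reported. Lung cancer cell lines in 1536-well plates were dosed by pin tool one day after seeding, with one drug or with a fixed anchor-drug dose plus five library-drug doses (not always all listed) in √10 steps, and nuclei were counted after 5 days.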

Crenolanib + Dasatinib = compound: CC1(COc2ccc3c(c2)ncn3-c2ccc3cccc(N4CCC(N)CC4)c3n2)COC1 [Crenolanib] + Cc1nc(Nc2ncc(C(=O)Nc3c(C)cccc3Cl)s2)cc(N2CCN(CCO)CC2)n1 [Dasatinib] (partner 0.075 µM)
Outline: as §1

Tivantinib + Trametinib = compound: O=C1NC(=O)[C@@H](c2cn3c4c(cccc24)CCC3)[C@@H]1c1c[nH]c2ccccc12 [Tivantinib] + CC(=O)Nc1cccc(-n2c(=O)n(C3CC3)c(=O)c3c(Nc4ccc(I)cc4F)n(C)c(=O)c(C)c32)c1 [Trametinib] (partner 0.02 µM)
Outline: as §1

Tivantinib + Foretinib = compound: O=C1NC(=O)[C@@H](c2cn3c4c(cccc24)CCC3)[C@@H]1c1c[nH]c2ccccc12 [Tivantinib] + COc1cc2c(Oc3ccc(NC(=O)C4(C(=O)Nc5ccc(F)cc5)CC4)cc3F)ccnc2cc1OCCCN1CCOCC1 [Foretinib] (partner 0.25 µM)
Outline: as §1

| Cell Line | relative viability (Crenolanib + Bortezomib; first compound 0.01 µM) | relative viability (Crenolanib + Bortezomib; first compound 0.03162 µM) | relative viability (Crenolanib + Bortezomib; first compound 0.1 µM) | relative viability (Crenolanib + Bortezomib; first compound 0.3162 µM) | relative viability (Crenolanib + Bortezomib; first compound 1 µM) | relative viability (Crenolanib + Dasatinib; first compound 0.01 µM) | relative viability (Crenolanib + Dasatinib; first compound 0.03162 µM) | relative viability (Crenolanib + Dasatinib; first compound 0.1 µM) | relative viability (Crenolanib + Dasatinib; first compound 0.3162 µM) | relative viability (Crenolanib + Dasatinib; first compound 1 µM) | relative viability (Tivantinib + Trametinib; first compound 0.01 µM) | relative viability (Tivantinib + Trametinib; first compound 0.03162 µM) | relative viability (Tivantinib + Trametinib; first compound 0.1 µM) | relative viability (Tivantinib + Trametinib; first compound 0.3162 µM) | relative viability (Tivantinib + Foretinib; first compound 0.01 µM) | relative viability (Tivantinib + Foretinib; first compound 0.03162 µM) | relative viability (Tivantinib + Foretinib; first compound 0.1 µM) | relative viability (Tivantinib + Foretinib; first compound 0.3162 µM) |
| --- | --- | --- | --- | --- | --- | --- | --- | --- | --- | --- | --- | --- | --- | --- | --- | --- | --- | --- |
| EMC-BAC-2 | 1.19 | 1.03 | 1.01 | 1.18 | 1.01 | 0.369 | 0.312 | 0.315 | 0.313 | 0.307 | 0.907 | 0.934 | 0.879 | 0.868 | 1 | 0.962 | 0.487 | 0.72 |
| NCI-H2009 | 1.14 | 1.02 | 1.01 | 0.959 | 0.813 | 0.323 | 0.297 | 0.257 | 0.294 | 0.227 | 0.328 | 0.246 | 0.273 | 0.238 | 1.23 | 1.22 | 1.21 | 1.27 |
| NCI-H596 | 0.929 | 1.07 | 0.998 | 0.981 | 1.17 | 0.716 | 0.655 | 0.627 | 0.675 | 0.538 | 0.897 | 0.839 | 0.774 | 0.678 | 0.855 | 0.835 | 1.1 | 0.895 |
| NCI-H650 | 0.944 | 0.767 | 0.769 | 0.855 | 0.68 | 0.493 | 0.472 | 0.425 | 0.404 | 0.356 | 0.936 | 0.787 | 0.899 | 0.945 | 1.03 | 0.987 | 0.989 | 0.822 |
| NCI-H1915 | 1 | 0.974 | 0.929 | 1.03 | 0.772 | 0.306 | 0.271 | 0.304 | 0.294 | 0.223 | 0.287 | 0.294 | 0.282 | 0.276 | 1.11 | 1.06 | 1.08 | 1.07 |
| SW 1573 | 1.04 | 1.15 | 0.996 | 1.29 | 1.15 | 0.539 | 0.48 | 0.591 | 0.558 | 0.553 | 0.682 | 0.488 | 0.561 | 0.452 | 1.04 | 0.83 | 0.804 | 0.863 |
| ChaGo-K-1 | 1.07 | 0.769 | 0.941 | 0.969 | 0.971 | 0.6 | 0.579 | 0.617 | 0.585 | 0.604 | 0.894 | 0.88 | 0.867 | 0.842 | 0.846 | 0.904 | 0.838 | 0.559 |
| NCI-H1355 | 1.33 | 1.15 | 1.3 | 1.37 | 0.951 | 0.733 | 0.704 | 0.681 | 0.718 | 0.488 | 0.476 | 0.412 | 0.469 | 0.367 | 1.08 | 1.03 | 0.995 | 0.915 |
| NCI-H1651 | 0.982 | 0.894 | 0.904 | 0.926 | 0.913 | 0.504 | 0.377 | 0.373 | 0.531 | 0.336 | 0.801 | 0.798 | 0.825 | 0.787 | 0.931 | 0.813 | 0.769 | 0.691 |
